Data taken from patent US12252712B2, “Use of engineered liver tissue constructs for modeling liver disorders” (Organovo, Inc., priority 2017, dated 2025).

Columns and labels:
Assay type in all cases: cell-based, human
[1] = system: immune competent bioprinted liver tissue constructs; test: NASH induction in bioprinted liver tissue constructs, histology (H&E, trichrome, desmin/α-SMA, CK18)
Method: Kupffer cells (KCs) were added to the parenchymal region in the bioprinted liver tissue construct of Example 6.
Separate high density bioinks comprising parenchymal cells (100% cellular paste, generated via compaction having human hepatocyte cells and human Kupffer cells) or nonparenchymal cells (150e6 cells/mL of endothelial cells and hepatic stellate cells formulated in hydrogel) were prepared and loaded into separate heads of the NovoGen Bioprinter™ Instrument within a standard biosafety cabinet. A computer script was then executed to deposit the bioinks in a two-compartment planar geometry (2 mm^2×0.5 mm) onto the membranes of standard 24-well 0.4 μm transwell culture inserts (Corning, Tewksbury, MA USA) via continuous deposition microextrusion with the non-parenchymal cells comprising the border regions of each compartment and the parenchymal cells filling each compartment.
Here, the liver tissue construct having KCs was treated with 100 μg/ml of LPS and 500 uM palmitic acid daily for 21 days. LPS was used to activate the KCs in order to initiate inflammation. In turn, activated KCs release factors that activate hepatic stellate cells, which initiate fibrosis. […] Untreated tissues with and without KCs were used as controls.

[2] = system: bioprinted liver tissue construct with Kupffer cells; test: Inflammatory cytokine release from bioprinted liver tissue constructs; conditions: co-treatment of LPS at 1 ug/mL with NASH induction, 14 days (FIG. 33)
Method: Tissue health were assessed at 7 day intervals using biochemical assays on spent media that measure hepatocellular function as outlined in Aim 1 (n≥5/group). Histological endpoints used to assess tissue morphology and composition (H&E, CD31, Desmin, E-cadherin, Albumin), ECM deposition (trichrome), hepatic stellate cell activation (desmin, a-smooth muscle actin ratio), lipid vacuoles (perilipin) and lipid content (Oil red 0) were measured at weekly intervals. In order to determine baseline cytokine production in response to lipid treatment, inflammatory cytokine release were measured at 7 day intervals via chemiluminescence with the V-Plex Pro-Inflammatory Panel (Meso Scale Discovery, Rockville, MD), which measures TNF-α, IL-113, IL-6, IL-8, IL-4, IL-2, IL-13, IL-12p70, IL-10, and interferon-y (IFN-y).

[3] = system: bioprinted hepatic stellate cell tissues; test: Stimulation of bioprinted hepatic stellate cell tissues with TGF-β1
Method: Cylindrical bio-ink comprising relevant heterogeneous (i.e., polytypic) cell populations were prepared. Physiologically-relevant populations (e.g., hepatic stellate cells (hSC) and human aortic endothelial cells (EC)) of cells were combined at specific ratios to generate proper bio-ink. Cells were maintained and propagated under standard laboratory conditions and cells were cultured in media either purchased from the same vendor as the cells, or media comprising components typically found in the primary literature to be conducive to standard cell culture practices for those particular cell types. Cell processing for bio-ink preparation was as follows: briefly, cells were liberated from standard tissue culture plastic by washing with cation-free phosphate buffered saline (PBS) and then exposed to 0.1-0.05% trypsin (Invitrogen). Liberated cells were then washed in serum-containing media, collected, counted, and combined in an appropriate ratio for the stimulation assay or experiment being conducted, and pelleted by centrifugation. Supernatant was then removed and the cell pellet was aspirated into a glass microcapillary, which was then submerged in complete media for approximately 15 to 20 minutes. This cylindrical bio-ink structure was then extruded into a non cell-adherent hydrogel mold, containing linear channels and held for 2 to 18 hours. Cylindrical bio-ink containing hSC: EC was then used to fabricate bioprinted tissue constructs and maintained and/or matured in a humidified chamber. Tissue segments were fabricated with initial dimensions of 1.25 mm×8 mm×0.25 mm (W×L×H). […]
The bioprinted neotissues were then submerged in serum-containing complete cell culture media and placed in a standard humidified chamber, supplemented with 5% CO2 for maturation. […] The bioprinted tissues were evaluated for characteristics such as, but not limited to for tissue morphology, cell organization, extracellular matrix production, cell proliferation, cell viability, and construct integrity. […]

[4] = system: bioprinted liver tissue construct; test: Steatosis induction in bioprinted liver tissue constructs (H&E, PLIN-5, Oil Red O)
From the text: 3D bioprinted liver tissues comprised of cryopreserved primary human hepatocytes (Life Technologies, Carlsbad, CA, USA), hepatic stellate cells (ScienCell; Carlsbad, CA, USA), and HUVEC cells (Becton Dickinson; Tewksbury, MA, USA) were bioprinted directly into 24-well Transwell plates (FIG. 20A) using the Organovo NovoGen Bioprinter Instrument (Organovo, San Diego, CA, USA).
Briefly, hepatic stellate cells and HUVEC cells were propagated per the manufacturer's instructions prior to tissue fabrication. Cryopreserved hepatocytes were thawed and prepared for use per the manufacturer's instructions. Separate high density bioinks comprising parenchymal cells (100% cellular paste, generated via compaction having hepatocyte cells) or nonparenchymal cells (150e6 cells/mL of endothelial cells and hepatic stellate cells formulated in hydrogel) were prepared and loaded into separate heads of the NovoGen Bioprinter Instrument within a standard biosafety cabinet. A computer script was then executed to deposit the bioinks in a two-compartment planar geometry (2 mm^2×0.5 mm) onto the membranes of standard 24-well 0.4 μm transwell culture inserts (Corning, Tewksbury, MA USA) via continuous deposition microextrusion with the non-parenchymal cells comprising the border regions of each compartment and the parenchymal cells filling each compartment. Following fabrication, the tissues were fed daily with 600 μL of 3D Liver Tissue Media, consisting of DMEM supplemented with Primary Hepatocyte Maintenance Supplements (Life Technologies, Carlsbad, CA, USA) and EGM-2 (Lonza, Basel, Switzerland), and incubated at 37° C. under humidified atmospheric conditions supplemented with 5% CO2. Tissues were allowed to mature in culture for at least three days following fabrication prior to initiation of experimentation, and were substantially free of pre-formed scaffold at the time of use. For the one month timecourse, tissues were fed daily for a total of 28 days post-fabrication.
The bioprinted liver tissue construct of Example 6 was treated with nutrient-mediated accumulation to induce a steatosis phenotype. Specifically, to induce steatosis, a first liver tissue construct was treated with palmitic acid (PA) of varying concentrations (200 uM PA or 500 uM PA) daily for 3 weeks in the presence of high glucose media (DMEM-HG). A second liver tissue construct was treated with a 5% and 10% lipid mix of oleic acid (OC) to palmitic acid (PA) at a ratio of 2:1 daily for 3 weeks in the presence of high glucose media (DMEM-HG). Optionally, insulin or genipin (1 uM or 5 uM) can be used to stimulate fatty acid uptake into hepatocytes and enhance the fatty phenotype. […]
The technical challenge is to make a 3D, bioprinted liver tissue construct having the disorder without adversely affecting hepatocyte function or tissue health (albumin, LOH activity, ALT), which most closely recapitulates the benign nature of steatosis commonly observed in clinical steatosis. Tissue health were assessed at 7 day intervals using biochemical assays that measure hepatocellular function (i.e., albumin) and injury (i.e., LOH and ALT) with n≥5 per treatment group. Greater than 5% fatty infiltrate into hepatocytes is considered steatotic; therefore, morphometric and biochemical assays were conducted to quantify hepatic lipid content. Tissue morphology and extracellular matrix (ECM) deposition were assessed using H&E and Trichrome staining, respectively, at 7 day intervals. […]

[5] = system: bioprinted liver tissue constructs; test: Caspase cleaved CK18 fragments (apoptosis) in bioprinted liver tissue constructs
bioprinted liver tissues = test: Drug safety: alanine transferase (ALT) in culture medium of bioprinted liver tissues; conditions: diseased (NASH-induced with 12.5 mM fructose and 500 uM PA) tissue treated with OCA versus non-diseased tissue
Method: The assessment of drug safety was also investigated using the bioprinted liver tissue constructs. Non-diseased (vehicle-treated) or diseased (NASH-induced with 12.5 mM fructose and 500 uM PA) bioprinted liver tissues were treated with OCA, followed by measurement of alanine transferase (ALT) in the culture medium, a liver enzyme elevated with hepatocellular injury. […] Significance was determined by One-way ANOVA with Dunnets Multiple Comparisons Test, with the increase in ALT levels for diseased tissue following OCA treatment having a P<0.0001 as compared to diseased tissue without OCA treatment. This provides a proof of concept for application of the NASH model in assessment of differential toxicity.

## lipopolysaccharide [LPS]
[1]; 21 days of PA and fructose (12.5 mM) with constitutive 10 ug/mL treatment, vs controls (FIG. 43)
  putative hepatocellular ballooning: also observed
[1]; 21 days of PA and fructose (12.5 mM) with constitutive 100 ug/mL LPS (FIG. 43)
  fibrosis and hepatocellular ballooning: high degree of fibrosis with putative hepatocellular ballooning
[2]
  cytokine levels (IL-10, IL-1β, TNF-α, IL-6): significantly increased above NASH induction only

## TGF-β1: cytokine used to elicit a tissue-specific response
[3]; 0-50 ng/mL (FIG. 15)
  cell density (Trichrome): dramatic decreases in cell density
  collagen deposition and construct size (Trichrome): increases in collagen deposition and construct size
[3]; increasing concentrations 0, 1, 10, 50 ng/mL (FIG. 15)
  tissue outgrowth formation (gross observation): increases in tissue outgrowth formation

## CCCCCCCCCCCCCCCC(=O)O [palmitic acid]
[4]; 200 μM and 500 μM, daily for 21 days, vs untreated controls
  steatotic phenotype (incidence and size of lipid droplets, PLIN 5 staining): induces a steatotic phenotype
[4]; 21 days, 500 μM vs 200 μM (FIG. 25B)
  lipid accumulation fold change (Oil Red O, Image J): greater accumulation of lipid droplets
[4]; 21 days, 200 and 500 uM, vs controls (FIG. 22)
  lipid accumulation (Oil Red O, morphometric quantification): significant dose-dependent increase in lipid accumulation
[1]; 7 days, 1 mM (FIG. 28A)
  fibrosis (TCM): increased incidence
  putative ballooned hepatocytes (H&E): increased incidence of putative ballooned hepatocytes
[5]; 7 days, 1 mM, vs all other FFA treatments and untreated controls (FIG. 28B)
  caspase cleaved cytokine (CK) 18 fragments: significantly higher levels
[5]; FIG. 28(B)
  cytotoxicity: increased cytotoxicity

## CCCCCCCC/C=C\CCCCCCCC(=O)O [OA, Oleic Acid]
[4]; 14 days of treatment (FIG. 27)
  lipid droplet (LD) size: larger sizes of LD's
[1]; 7 days, 1 mM (FIG. 28A)
  fibrosis (TCM): less fibrosis
  macrovesicular steatosis (H&E): increased incidence of macrovesicular steatosis

## O=C(CO)[C@@H](O)[C@H](O)[C@H](O)CO [fructose]
[1]; 14 days, fructose 20 mM, OA or OA:PA 0.5 mM, vs controls (FIG. 32)
  fibrosis (TCM): increased fibrosis
[1]; 21 days, fructose 12.5 mM, PA 0.5 mM, vs controls (FIG. 31)
  fibrosis (TCM): increased fibrosis

## COC(=O)C1=CO[C@@H](O)[C@@H]2C(CO)=CC[C@H]12 [Genipin]
[4]; 21 days, 5 μM Genipin added to 500 μM PA, vs 500 μM PA alone
  lipid accumulation fold change (Oil Red O, Image J): did not further increase lipid accumulation

## CC[C@H]1[C@@H](O)[C@@H]2[C@H](CC[C@]3(C)[C@@H]([C@H](C)CCC(=O)O)CC[C@@H]23)[C@@]2(C)CC[C@@H](O)C[C@@H]12 [OCA, Obeticholic Acid]
Bioprinted liver tissues
  alanine transferase (ALT) in the culture medium: increased ALT
